Source: US20100331363A1, “TREATMENT OF MITOCHONDRIAL DISORDERS USING A FARNESYL TRANSFERASE INHIBITOR” (Link Medicine Corporation, priority 2008, published 2010)
“Also recorded” adds a separate entry of the source. Where two headings read alike, the source gives them in different places.

Legend:
INS1 cells = test: Palmitate-induced cell death of INS1 cells, propidium iodide flow cytometry; format: cell-based; settings: low dose; palmitate 18 hours, compound last 12 hours
Procedure: LNK-754 was tested using a cell death assay to determine whether it had any effect on palmitate-induced cell death. For Example, one example of such an assay is as follows: INS1 cells were incubated in control medium or in medium containing palmitate for 18 hours and either rapamycin or LNK-754 at 0.25 nM, 0.5 nM, 1 nM, 10 nM, and 100 nM were added for the last 12 hours. At the end of the incubation, the cells were washed with PBS and stained with 1 μg/ml propidium iodide (e.g., Molecular Probes, P3566). FACS data analysis was performed and cell debris was excluded. […] At low dose, LNK-754 behaves similar to rapamycin.

[1] = system: APP processing and secretion; test: APP processing and secretion in a cell culture model of pathogenic Aβ production; format: cell-based
Description: (§1) Finally, it is important to note that LNK-754-TS had no effect on APP processing and secretion in a cell culture model of pathogenic Aβ production (Selkoe, D. J., et al. Ann N Y Acad Sci 777, 57-64 (1996)).

aged non-transgenic rats = test: Morris water maze in aged non-transgenic rats; format: in vivo, rat; settings: aged rats 22 months, 0.3 mg/kg and 0.9 mg/kg once every 24 hours
Description: Morris water maze (MWM) analysis of cognitive performance: In APP/PS1 transgenic animals, swimming behavior in a Morris Water Maze was videotaped and analyzed (Ethovision, Noldus, Wageningen, Netherlands). For mice, a place navigation test was used to locate the hidden platform in five blocks of three trials over three consecutive days. Each trial consists of a forced swim test of maximum 120 seconds, followed by 60 seconds of rest. The time each mouse needed for location of the platform was measured. For rats, a cued learning phase was first conducted, consisting of 3 trials per day for 5 days, using a visible platform of varying location. Each trial consisted of a forced swim test of maximum 60 seconds, followed by 10 minutes of rest. The time and path length each rat needed to locate the platform was measured.
In order to rule out the possibility that the rapid observed improvement in cognition described above arose from an alternative, transgene-independent mechanism, aged non-transgenic rats (22 months old) were treated with LNK-754-TS (0.3 mg/kg and 0.9 mg/kg, once every 24 hours) and their cognitive performance was measured by MWM and compared to that of younger rats (3 months old) of the same strain.

LC3 mRNA = LC3 mRNA (qPCR) in SH-SY5Y cells; format: cell-based, human
Procedure: (§2) Cell culture and immunocytochemistry: SH-SY5Y cells were grown in DMEM medium supplemented with 10% FBS and 1% pen/strep at 37° C. and 5% CO2. Cells were differentiated with 10 μM retinoic acid for 48 hr, then treated with the either rapamycin (100 nM or 1 μM) or with 100 nM of either LNK-754-TS or Tipifarnib for 48-72 hr. Cells were then fixed with 4% paraformaldehyde and stained for LC3 (Novus biological, NB100-2331, dilution 1:800) followed by secondary Alexa-564 anti-Rabbit (A-11011).
Quantitative real-time PCR: Gene expression profiles were done by qPCR on series of known autophagy genes. RNA was extracted with Tri-reagent (Sigma), and cDNAs generated using iScript (Biorad). qPCR analysis was carried out in a 96 well plate using an iCycler (BioRad, Hercules, Calif.), and iQ SYBR Green Supermix (Biorad) according to the manufacturer's specifications.
Such increases in LC3 mRNA levels are associated in the literature with stimulation of macroautophagy. This supports the hypothesis that at doses as low as 1 nM in this in vitro system there is stimulation of autophagy in these cells.
(§3) Autophagy was measured in a neuroblastoma cell culture system by three distinct approaches: quantitation of autophagy-related mRNA's, immunofluorescence microscopy of autophagosomes, and biochemical detection of the microtubule-associated protein 1 light chain 3 (LC3) a key protein that is required for autophagosome formation. Differentiated human neuroblastoma cells (SH-SY5Y) were treated for 72 hr with LNK-754-TS (0.01-100 nM), Zarnestra® (also referred to herein as tipifarnib) (100 nM) or rapamycin (1 μM).

[2] = system: LC3-positive puncta (autophagosomes); test: LC3 immunostaining (LC3-positive puncta) in SH-SY5Y cells; format: cell-based, human; settings: 100 nM, SH-SY5Y (FIG. 8b)
Procedure: as §2, §3

[3] = Pharmacokinetics of LNK-754-TS in mice, oral; format: in vivo, mouse; settings: for MRT inf: read-out: MRT(0-∞)
Description: In the experimental data represented in Table 2A, a different method of drug delivery is used (oral) than in the experiment represented in FIG. 3. The best way to compare the relative coverage of the two delivery methods (oral and continuous infusion) is by comparing area-under-the-curve (AUC) values. We can compare the calculated AUC values for the continuous infusion oncology study presented in FIG. 3 and the AUC values associated with the synuclein model doses in the table. […] The AUCs of orally dosed LNK-754-TS at 0.9 mg/kg and at 0.09 mg/kg QD are 34.6 and […], respectively.
The pharmacokinetic profiles of LNK-754-TS and Zarnestra® were analyzed using methods known in the art. The results are shown in FIGS. 13-14 and the tables below.

[4] = system: 3T3H-ras (61 L) xenograft; settings: cited from earlier work
Aβ = test: h-APPs1 transgenic mouse, Aβ levels; format: in vivo; settings: 0.9 mg/kg once every 24 hr, three months
Description: as §1

[5] = C57BL/6, mouse, in vivo, po, 9 mg/kg, Group 5 (9 mg/kg SID), C57BL/6 mice, oral
[6] = C57BL/6, mouse, in vivo, po, 9 mg/kg, Group 6 (9 mg/kg BID), C57BL/6 mice, oral
[7] = C57BL/6, mouse, in vivo, po, 9 mg/kg, Group 9 (9 mg/kg Day 5), C57BL/6 mice, oral

## C#Cc1cccc(-c2cc(=O)n(C)c3ccc([C@](O)(c4ccc(Cl)cc4)c4cncn4C)cc23)c1 [LNK-754, (R)-6-[(4-chlorophenyl)-hydroxyl-(1-methyl-1-H-imidazol-5-yl)-methyl]-4-(3-ethynylphenyl)-1-methyl-2-(1H)-quinonlinone]
INS1 cells
  palmitate-induced cell death: protects INS1 cells from palmitate toxicity

## C#Cc1cccc(-c2cc(=O)n(C)c3ccc([C@](O)(c4ccc(Cl)cc4)c4cncn4C)cc23)c1 [LNK-754-TS, (R)-6-[(4-chlorophenyl)-hydroxyl-(1-methyl-1-H-imidazol-5-yl)-methyl]-4-(3-ethynylphenyl)-1-methyl-2-(1H)-quinonlinone (2S, 3S)-dihydroxybutanedioate]
[1]
  APP processing and secretion: no effect
Aged non-transgenic rats
  cognitive performance, Morris water maze (place learning, probe tests): no significant cognitive improvement
LC3 mRNA; 0.01-100 nM, 72 hr, differentiated SH-SY5Y (FIG. 8a)
  LC3 transcript: upregulated; also recorded: increased
LC3 mRNA; between 1 and 100 nM, SH-SY5Y, 72 hours (FIG. 4)
  levels of mRNA of LC3: significant increases
[2]
  number of LC3-positive puncta: distinct increase; also recorded: increased
[3]; 0.9 mg/kg oral, QD day 1, 5% beta-cyclodextrin, mice
  AUC: 34.6 ng·h/mL
[3]; C57BL/6, mouse, in vivo, po, 0.09 mg/kg, 0.09 mg/kg oral, QD day 1, 5% beta-cyclodextrin, mice
  Cmax: 0.61 ng/mL
[3]; C57BL/6, mouse, in vivo, po, 0.09 mg/kg, 0.09 mg/kg oral, QD day 1, 5% beta-cyclodextrin, mice, read-out: AUC
  AUC: 0.63 ng·h/mL
[3]; C57BL/6, mouse, in vivo, po, 0.9 mg/kg, 0.9 mg/kg oral, QD day 1, 5% beta-cyclodextrin, mice
  Cmax: 31.1 ng/mL
[3]; C57BL/6, mouse, in vivo, po, 0.9 mg/kg, 0.9 mg/kg oral, QD day 1, 5% beta-cyclodextrin, mice, read-out: AUC
  AUC: 34.6 ng·h/mL
[3]; C57BL/6, mouse, in vivo, po, 9 mg/kg, 9 mg/kg BID oral, mice (text summary of day 1 and day 5), read-out: AUC
  AUC: 2000 to 2600 ng·h/mL
[3]; C57BL/6, mouse, in vivo, po, 9 mg/kg, 9 mg/kg oral, BID day 1, 20% beta-cyclodextrin, mice
  Cmax: 1380 ng/mL
[3]; C57BL/6, mouse, in vivo, po, 9 mg/kg, 9 mg/kg oral, BID day 1, 20% beta-cyclodextrin, mice, read-out: AUC
  AUC: 2100 ng·h/mL
[3]; C57BL/6, mouse, in vivo, po, 9 mg/kg, 9 mg/kg oral, BID day 5, 20% beta-cyclodextrin, mice
  Cmax: 1480 ng/mL
[3]; C57BL/6, mouse, in vivo, po, 9 mg/kg, 9 mg/kg oral, BID day 5, 20% beta-cyclodextrin, mice, read-out: AUC
  AUC: 2630 ng·h/mL
[3]; [5]
  AUC(0-inf): 752 ng·h/mL
  AUC(0-t): 730 ng·h/mL
  Cmax: 318 ng/mL
  half-life: 1.5 h
  MRT inf: 2.38 h
[3]; [6]
  AUC(0-inf): 2290 ng·h/mL
  AUC(0-t): 2100 ng·h/mL
  Cmax: 1390 ng/mL
  half-life: 5.04 h
  MRT inf: 2.67 h
[3]; [7]
  AUC(0-inf): 2630 ng·h/mL
  AUC(0-t): 2630 ng·h/mL
  Cmax: 1490 ng/mL
  half-life: 0.62 h
  MRT inf: 1.43 h
[3]; C57BL/6, mouse, in vivo, 0.09 mg/kg oral, QD day 1, 5% beta-cyclodextrin, mice
  Tmax: 0.5 h
[3]; C57BL/6, mouse, in vivo, 0.9 mg/kg oral, QD day 1, 5% beta-cyclodextrin, mice
  Tmax: 0.5 h
[3]; C57BL/6, mouse, in vivo, 9 mg/kg oral, BID day 1, 20% beta-cyclodextrin, mice
  Tmax: 1 h
[3]; Group 5 (9 mg/kg SID), C57BL/6 mice, oral
  Tmax: 1 h
[3]; Group 6 (9 mg/kg BID), C57BL/6 mice, oral
  Tmax: 1 h
[3]; Group 9 (9 mg/kg Day 5), C57BL/6 mice, oral
  Tmax: 1 h
[4]; 25 mg/kg, lowest dose tested
  efficacy against tumor growth: borderline efficacy
[4]; 10 days BID, 3T3H-ras (61 L) xenograft athymic mouse
  dose required for suppression of tumor growth: at least 25 mg per kg
Aβ
  amounts of more soluble Aβ42 species: small reduction
  cortical Aβ immunoreactivity and Aβ in insoluble fractions: did not significantly reduce
